Source: patent US8796256B2 (Janssen Pharmaceutica NV, priority 2010, dated 2014)

Each compound was assayed against T1, ERR1 (also known as ERR-α or ERR-1) (Homo sapiens, UniProt P11474) (assay: TR-FRET assay (disruption of co-activator peptide binding to ERR1 LBD)). Details: 6 nM 6His-ERR1LBD, 6 nM GST-SRC-2 peptide; average of 3 independent experiments.
T1 sequence (P11474 193-421 limits assumed): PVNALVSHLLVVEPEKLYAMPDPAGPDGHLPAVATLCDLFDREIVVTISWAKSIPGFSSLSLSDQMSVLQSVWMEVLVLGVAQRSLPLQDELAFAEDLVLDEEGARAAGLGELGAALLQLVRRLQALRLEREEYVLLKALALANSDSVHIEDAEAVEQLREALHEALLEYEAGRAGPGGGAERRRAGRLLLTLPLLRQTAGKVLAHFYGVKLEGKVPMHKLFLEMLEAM
Format: biochemical
Outline: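 Homogeneous TR-FRET measuring displacement of GST-hSRC2 co-activator peptide (6 nM) from His-tagged ERR1 LBD (6 nM), detected with α-GST Eu cryptate (30 nM) and α-His-XL665 (7.5 nM). Buffer 25 mM Tris pH 8, 2.5 mM Hepes, 20 mM KCl, 1 mM DTT, 0.05 mg/mL delipidated BSA; equilibration 4-18 h at 25° C. Hyperbolic dose-response fit, mean of 3 experiments.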

Row | EC50 [nM] | SMILES
1 | 23 | CN1CCC[C@H]1CN1C(=O)S/C(=C\c2ccc3c(cnn3Cc3ccc(C(F)(F)F)cc3C(F)(F)F)c2)C1=O [Compound 69, (5Z)-5-({1-[2,4-Bis(trifluoromethyl)benzyl]-1H-indazol-5-yl}methylidene)-3-{[(2S)-1-methylpyrrolidin-2-yl]methyl}-1,3-thiazolidine-2,4-dione]
2 | 620 | O=C1S/C(=C\c2ccc3c(cnn3Cc3ccc(C(F)(F)F)cc3C(F)(F)F)c2)C(=O)N1C1CCNCC1 [Compound 67, (5Z)-5-({1-[2,4-Bis(trifluoromethyl)benzyl]-1H-indazol-5-yl}methylidene)-3-piperidin-4-yl-1,3-thiazolidine-2,4-dione]
3 | 34 | O=C1S/C(=C\c2ccc3c(cnn3Cc3ccc(C(F)(F)F)cc3C(F)(F)F)c2)C(=O)N1[C@@H]1CNCC[C@H]1O (relative stereo) [Compound 280, (5Z)-5-({1-[2,4-Bis(trifluoromethyl)benzyl]-1H-indazol-5-yl}methylidene)-3-[trans-4-hydroxypiperidin-3-yl]-1,3-thiazolidine-2,4-dione]
4 | 20 | CN1CC(N2C(=O)S/C(=C\c3ccc4c(cnn4Cc4ccc(Cl)cc4C(F)(F)F)c3)C2=O)C1 [Compound 133, (5Z)-5-({1-[4-Chloro-2-(trifluoromethyl)benzyl]-1H-indazol-5-yl}methylidine)-3-(1-methylazetidin-3-yl)-1,3-thiazolidine-2,4-dione]
5 | 19 | CC(C)(C)NCCN1C(=O)S/C(=C\c2ccc3c(cnn3Cc3ccc(Cl)cc3C(F)(F)F)c2)C1=O [Compound 46, (5Z)-3-[2-(tert-Butylamino)ethyl]-5-({1-[4-chloro-2-(trifluoromethyl)benzyl]-1H-indazol-5-yl}methylidene)-1,3-thiazolidine-2,4-dione]
6 | 45 | COCCN1C(=O)S/C(=C\c2ccc3c(cnn3Cc3ccc(Cl)cc3C(F)(F)F)c2)C1=O [Compound 123, (5Z)-5-({1-[4-Chloro-2-(trifluoromethyl)benzyl]-1H-indazol-5-yl}methylidene)-3-(2-methoxyethyl)-1,3-thiazolidine-2,4-dione]
7 | 27 | COCCN1CCC[C@H]1CN1C(=O)S/C(=C\c2ccc3c(cnn3Cc3ccc(Cl)cc3C(F)(F)F)c2)C1=O [Compound 152, (5Z)-5-({1-[4-Chloro-2-(trifluoromethyl)benzyl]-1H-indazol-5-yl}methylidene)-3-{[(2S)-1-(2-methoxyethyl)pyrrolidin-2-yl]methyl}-1,3-thiazolidine-2,4-dione]
8 | 34 | O=C(O)c1ccc(S(=O)(=O)NCCN2C(=O)S/C(=C\c3ccc4c(cnn4Cc4ccc(Cl)cc4C(F)(F)F)c3)C2=O)o1 [Compound 421, 5-({2-[(5Z)-5-({1-[4-Chloro-2-(trifluoromethyl)benzyl]-1H-indazol-5-yl}methylidene)-2,4-dioxo-1,3-thiazolidin-3-yl]ethyl}sulfamoyl)furan-2-carboxylic acid]
9 | 17 | O=C1S/C(=C\c2ccc3c(cnn3Cc3ccc(Cl)cc3C(F)(F)F)c2)C(=O)N1CCn1ccnc1 [Compound 296, (5Z)-5-({1-[4-Chloro-2-(trifluoromethyl)benzyl]-1H-indazol-5-yl}methylidene)-3-[2-(1H-imidazol-1-yl)ethyl]-1,3-thiazolidine-2,4-dione]
10 | 33 | CCN1C[C@@H](N2C(=O)S/C(=C\c3ccc4c(cnn4Cc4ccc(Cl)cc4C(F)(F)F)c3)C2=O)[C@@H](F)C1 (relative stereo) [Compound 324, (5Z)-5-({1-[4-Chloro-2-(trifluoromethyl)benzyl]-1H-indazol-5-yl}methylidene)-3-[cis-1-ethyl-4-fluoropyrrolidin-3-yl]-1,3-thiazolidine-2,4-dione]
11 | 124 | NS(=O)(=O)CN1C(=O)S/C(=C\c2ccc3c(cnn3Cc3ccc(C(F)(F)F)cc3C(F)(F)F)c2)C1=O [Compound 68]
12 | 17 | O=C1S/C(=C\c2ccc3c(cnn3Cc3ccc(Cl)cc3C(F)(F)F)c2)C(=O)N1N1CCN(CCO)CC1 [Compound 354, (5Z)-5-({1-[4-Chloro-2-(trifluoromethyl)benzyl]-1H-indazol-5-yl}methylidene)-3-[4-(2-hydroxyethyl)piperazin-1-yl]-1,3-thiazolidine-2,4-dione]
13 | 34 | NC1(CN2C(=O)S/C(=C\c3ccc4c(cnn4Cc4ccc(Cl)cc4C(F)(F)F)c3)C2=O)CC1 [Compound 194, (5Z)-3-[(1-Aminocyclopropyl)methyl]-5-({1-[4-chloro-2-(trifluoromethyl)benzyl]-1H-indazol-5-yl}methylidene)-1,3-thiazolidine-2,4-dione]
14 | 62 | Nc1nc(CN2C(=O)S/C(=C\c3ccc4c(cnn4Cc4ccc(Cl)cc4C(F)(F)F)c3)C2=O)cs1 [Compound 400, (5Z)-3-[(2-Amino-1,3-thiazol-4-yl)methyl]-5-({1-[4-chloro-2-(trifluoromethyl)benzyl]-1H-indazol-5-yl}methylidene)-1,3-thiazolidine-2,4-dione]
15 | 16 | O=C1S/C(=C\c2ccc3c(cnn3Cc3ccc(Cl)cc3C(F)(F)F)c2)C(=O)N1CC(O)CO (centres unmarked) [Compound 43, (5Z)-5-({1-[4-Chloro-2-(trifluoromethyl)benzyl]-1H-indazol-5-yl}methylidene)-3-(2,3-dihydroxypropyl)-1,3-thiazolidine-2,4-dione]
16 | 47 | O=C(O)CCCN1C(=O)S/C(=C\c2ccc3c(cnn3Cc3ccc(Cl)cc3C(F)(F)F)c2)C1=O [Compound 97, 4-[(5Z)-5-({1-[4-Chloro-2-(trifluoromethyl)benzyl]-1H-indazol-5-yl}methylidene)-2,4-dioxo-1,3-thiazolidin-3-yl]butanoic acid]
17 | 58 | N[C@H]1CC[C@H](N2C(=O)S/C(=C\c3ccc4c(cnn4Cc4ccc(Cl)cc4C(F)(F)F)c3)C2=O)CC1 [Compound 176, (5Z)-3-(trans-4-Aminocyclohexyl)-5-({1-[4-chloro-2-(trifluoromethyl)benzyl]-1H-indazol-5-yl}methylidene)-1,3-thiazolidine-2,4-dione]
18 | 120 | O=C(O)CN1C(=O)S/C(=C\c2ccc3c(ccn3Cc3ccc(Cl)cc3C(F)(F)F)c2)C1=O [Compound 253, [(5Z)-5-({1-[4-Chloro-2-(trifluoromethyl)benzyl]-1H-indol-5-yl}methylidene)-2,4-dioxo-1,3-thiazolidin-3-yl]acetic acid]
19 | 160 | CN1C[C@H](F)C[C@H]1CN1C(=O)S/C(=C\c2ccc3c(cnn3Cc3ccc(Cl)cc3C(F)(F)F)c2)C1=O [Compound 193, (5Z)-5-({1-[4-Chloro-2-(trifluoromethyl)benzyl]-1H-indazol-5-yl}methylidene)-3-{[(2S,4R)-4-fluoro-1-methylpyrrolidin-2-yl]methyl}-1,3-thiazolidine-2,4-dione]
20 | 82 | O=C1S/C(=C\c2ccc3c(cnn3Cc3ccc(C(F)(F)F)cc3C(F)(F)F)c2)C(=O)N1C[C@@H]1CCCN1 [Compound 83, (5Z)-5-({1-[2,4-Bis(trifluoromethyl)benzyl]-1H-indazol-5-yl}methylidene)-3-[(2S)-pyrrolidin-2-ylmethyl]-1,3-thiazolidine-2,4-dione]
21 | 71 | COc1ccc(Cn2ncc3cc(/C=C4\SC(=O)N(CCN5CCN(CCO)CC5)C4=O)ccc32)c(C(F)(F)F)c1 [Compound 16, (5Z)-3-{2-[4-(2-Hydroxyethyl)piperazin-1-yl]ethyl}-5-({1-[4-methoxy-2-(trifluoromethyl)benzyl]-1H-indazol-5-yl)methylidene)-1,3-thiazolidine-2,4-dione]
22 | 61 | O=C1S/C(=C\c2ccc3c(cnn3Cc3ccc(Cl)cc3C(F)(F)F)c2)C(=O)N1[C@H]1CCNC[C@H]1F (relative stereo) [Compound 201, (5Z)-5-({1-[4-Chloro-2-(trifluoromethyl)benzyl]-1H-indazol-5-yl}methylidene)-3-(cis-3-fluoropiperidin-4-yl)-1,3-thiazolidine-2,4-dione]
23 | 20 | O=C1S/C(=C\c2ccc3c(cnn3Cc3ccc(Cl)cc3C(F)(F)F)c2)C(=O)N1Cc1ncc[nH]1 [Compound 403, (5Z)-5-({1-[4-Chloro-2-(trifluoromethyl)benzyl]-1H-indazol-5-yl}methylidene)-3-(1H-imidazol-2-ylmethyl)-1,3-thiazolidine-2,4-dione]
24 | 19 | CC(C)NCCN1C(=O)S/C(=C\c2ccc3c(cnn3Cc3ccc(Cl)cc3C(F)(F)F)c2)C1=O [Compound 48, (5Z)-5-({1-[4-Chloro-2-(trifluoromethyl)benzyl]-1H-indazol-5-yl}methylidene)-3-{2-[(1-methylethyl)amino]ethyl}-1,3-thiazolidine-2,4-dione]
25 | 47 | O=C1S/C(=C\c2ccc3c(cnn3Cc3ccc(Cl)cc3C(F)(F)F)c2)C(=O)N1CCN1CCNS1(=O)=O [Compound 337, (5Z)-5-({1-[4-Chloro-2-(trifluoromethyl)benzyl]-1H-indazol-5-yl}methylidene)-3-[2-(1,1-dioxido-1,2,5-thiadiazolidin-2-yl)ethyl]-1,3-thiazolidine-2,4-dione]
26 | 44 | COC(=O)C(Cc1cn(C)cn1)N1C(=O)S/C(=C\c2ccc3c(cnn3Cc3ccc(Cl)cc3C(F)(F)F)c2)C1=O (centres unmarked) [Compound 214, Methyl 2-[(5Z)-5-({1-[4-chloro-2-(trifluoromethyl)benzyl]-1H-indazol-5-yl}methylidene)-2,4-dioxo-1,3-thiazolidin-3-yl]-3-(1-methyl-1H-imidazol-4-yl)propanoate]
